According to the supplement of paper PMC9663587:

What was measured:
Test in all cases: increase in dead-cell fraction, 72 h; higher = more death;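 note: breast cancer cell lines in 384-well plates, stained with Hoechst plus LIVE/DEAD far red dye and imaged, cells above an LDR intensity threshold counted dead, Hoechst-negative corpses included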
Doxorubicin = compound: COc1cccc2c1C(=O)c1c(O)c3c(c(O)c1C2=O)C[C@@](O)(C(=O)CO)C[C@@H]3O[C@H]1C[C@H](N)[C@H](O)[C@H](C)O1 [Doxorubicin]
Paclitaxel = compound: CC(=O)O[C@H]1C(=O)[C@@]2(C)[C@H]([C@H](OC(=O)c3ccccc3)[C@]3(O)C[C@H](OC(=O)[C@H](O)[C@@H](NC(=O)c4ccccc4)c4ccccc4)C(C)=C1C3(C)C)[C@]1(OC(C)=O)CO[C@@H]1C[C@@H]2O [Paclitaxel]
ABT-737 = compound: CN(C)CC[C@H](CSc1ccccc1)Nc1ccc(S(=O)(=O)NC(=O)c2ccc(N3CCN(Cc4ccccc4-c4ccc(Cl)cc4)CC3)cc2)cc1[N+](=O)[O-] [ABT-737]
Volasertib/BI6727 = compound: CC[C@@H]1C(=O)N(C)c2cnc(Nc3ccc(C(=O)N[C@H]4CC[C@H](N5CCN(CC6CC6)CC5)CC4)cc3OC)nc2N1C(C)C [Volasertib/BI6727]
BVD523 = compound: CC(C)Nc1cc(-c2c[nH]c(C(=O)N[C@H](CO)c3cccc(Cl)c3)c2)c(Cl)cn1 [BVD523]
[1] = compound: CO[C@@H](C)Cn1c(=O)n(C)c2cnc3ccc(-c4cncc(C(C)(C)O)c4)cc3c21
R0-3306 = compound: C1=CC2=C(C=CC(=C2)C=C3C(=O)NC(=NCC4=CC=CS4)S3)N=C1 [R0-3306]
Taselisib/GDC0032 = compound: Cc1nc(-c2cn3c(n2)-c2ccc(-c4cnn(C(C)(C)C(N)=O)c4)cc2OCC3)n(C(C)C)n1 [Taselisib/GDC0032]
AZD7762 = compound: NC(=O)Nc1cc(-c2cccc(F)c2)sc1C(=O)N[C@H]1CCCNC1 [AZD7762]
Alpelisib/BYL719 = compound: Cc1nc(NC(=O)N2CCC[C@H]2C(N)=O)sc1-c1ccnc(C(C)(C)C(F)(F)F)c1 [Alpelisib/BYL719]
[2] = compound: COc1ccc2c(c1)[C@]1(C[C@H]1c1ccc3c(/C=C/c4ccc(CN5C[C@@H](C)O[C@@H](C)C5)cc4)n[nH]c3c1)C(=O)N2
AZD5363 = compound: NC1(C(=O)N[C@@H](CCO)c2ccc(Cl)cc2)CCN(c2nc[nH]c3nccc2-3)CC1 [AZD5363]

With AU565 the “increase in dead-cell fraction” value (Doxorubicin; 0.0003162 µM) was 0.0037, the “increase in dead-cell fraction” value (Doxorubicin; 0.001 µM) was 0.0029 and the “increase in dead-cell fraction” value (Doxorubicin; 0.003162 µM) was -0.0003. For the same cell line, the “increase in dead-cell fraction” value (Doxorubicin; 0.01 µM) was -0.0009, the “increase in dead-cell fraction” value (Doxorubicin; 0.03162 µM) was 0.0192 and the “increase in dead-cell fraction” value (Doxorubicin; 0.1 µM) was 0.0682. The “increase in dead-cell fraction” value (Doxorubicin; 0.3162 µM) was 0.138, the “increase in dead-cell fraction” value (Doxorubicin; 1 µM) was 0.199 and the “increase in dead-cell fraction” value (Doxorubicin; 3.162 µM) was 0.22. For the same cell line, the “increase in dead-cell fraction” value (Paclitaxel; 0.0001 µM) was 0.0067, the “increase in dead-cell fraction” value (Paclitaxel; 0.0003162 µM) was 0.0015 and the “increase in dead-cell fraction” value (Paclitaxel; 0.001 µM) was 0.0164. The “increase in dead-cell fraction” value (Paclitaxel; 0.003162 µM) was 0.226, the “increase in dead-cell fraction” value (Paclitaxel; 0.01 µM) was 0.312 and the “increase in dead-cell fraction” value (Paclitaxel; 0.03162 µM) was 0.333. For the same cell line, the “increase in dead-cell fraction” value (Paclitaxel; 0.1 µM) was 0.324, the “increase in dead-cell fraction” value (Paclitaxel; 0.3162 µM) was 0.278 and the “increase in dead-cell fraction” value (Paclitaxel; 1 µM) was 0.303. The “increase in dead-cell fraction” value (ABT-737; 0.001 µM) was 0.0066, the “increase in dead-cell fraction” value (ABT-737; 0.003162 µM) was 0.0005 and the “increase in dead-cell fraction” value (ABT-737; 0.01 µM) was 0.0025. The “increase in dead-cell fraction” value (ABT-737; 0.03162 µM) was -0.0006, the “increase in dead-cell fraction” value (ABT-737; 0.1 µM) was 0.0014 and the “increase in dead-cell fraction” value (ABT-737; 0.3162 µM) was 0.0008. For the same cell line, the “increase in dead-cell fraction” value (ABT-737; 1 µM) was 0.0066, the “increase in dead-cell fraction” value (ABT-737; 3.162 µM) was 0.0073 and the “increase in dead-cell fraction” value (ABT-737; 10 µM) was 0.0507. For the same cell line, the “increase in dead-cell fraction” value (Volasertib/BI6727; 0.0001 µM) was -0.0025, the “increase in dead-cell fraction” value (Volasertib/BI6727; 0.0003162 µM) was 0.0017 and the “increase in dead-cell fraction” value (Volasertib/BI6727; 0.001 µM) was -0.0005. For the same cell line, the “increase in dead-cell fraction” value (Volasertib/BI6727; 0.003162 µM) was 0.0085, the “increase in dead-cell fraction” value (Volasertib/BI6727; 0.01 µM) was 0.284 and the “increase in dead-cell fraction” value (Volasertib/BI6727; 0.03162 µM) was 0.353. The “increase in dead-cell fraction” value (Volasertib/BI6727; 0.1 µM) was 0.412, the “increase in dead-cell fraction” value (Volasertib/BI6727; 0.3162 µM) was 0.353 and the “increase in dead-cell fraction” value (Volasertib/BI6727; 1 µM) was 0.152. For the same cell line, the “increase in dead-cell fraction” value (BVD523; 0.001 µM) was -0.0105, the “increase in dead-cell fraction” value (BVD523; 0.003162 µM) was -0.0083 and the “increase in dead-cell fraction” value (BVD523; 0.01 µM) was -0.0074. The “increase in dead-cell fraction” value (BVD523; 0.03162 µM) was -0.0063, the “increase in dead-cell fraction” value (BVD523; 0.1 µM) was -0.0004 and the “increase in dead-cell fraction” value (BVD523; 0.3162 µM) was -0.0069. For the same cell line, the “increase in dead-cell fraction” value (BVD523; 1 µM) was 0.0092, the “increase in dead-cell fraction” value (BVD523; 3.162 µM) was 0.0104 and the “increase in dead-cell fraction” value (BVD523; 10 µM) was 0.0436. For the same cell line, the “increase in dead-cell fraction” value ([1]; 0.001 µM) was 0.0299, the “increase in dead-cell fraction” value ([1]; 0.003162 µM) was 0.0425 and the “increase in dead-cell fraction” value ([1]; 0.01 µM) was 0.0372. The “increase in dead-cell fraction” value ([1]; 0.03162 µM) was 0.0503, the “increase in dead-cell fraction” value ([1]; 0.1 µM) was 0.0586 and the “increase in dead-cell fraction” value ([1]; 0.3162 µM) was 0.0998. For the same cell line, the “increase in dead-cell fraction” value ([1]; 1 µM) was 0.074, the “increase in dead-cell fraction” value ([1]; 3.162 µM) was 0.091 and the “increase in dead-cell fraction” value ([1]; 10 µM) was 0.511. The “increase in dead-cell fraction” value (R0-3306; 0.001 µM) was -0.0007, the “increase in dead-cell fraction” value (R0-3306; 0.003162 µM) was 0.0211 and the “increase in dead-cell fraction” value (R0-3306; 0.01 µM) was 0.0272. The “increase in dead-cell fraction” value (R0-3306; 0.03162 µM) was 0.005, the “increase in dead-cell fraction” value (R0-3306; 0.1 µM) was 0.0121 and the “increase in dead-cell fraction” value (R0-3306; 0.3162 µM) was 0.0139. The “increase in dead-cell fraction” value (R0-3306; 1 µM) was 0.0267, the “increase in dead-cell fraction” value (R0-3306; 3.162 µM) was 0.0545 and the “increase in dead-cell fraction” value (R0-3306; 10 µM) was 0.329. The “increase in dead-cell fraction” value (Taselisib/GDC0032; 0.001 µM) was 0.0087, the “increase in dead-cell fraction” value (Taselisib/GDC0032; 0.003162 µM) was 0.0153 and the “increase in dead-cell fraction” value (Taselisib/GDC0032; 0.01 µM) was 0.0378. The “increase in dead-cell fraction” value (Taselisib/GDC0032; 0.03162 µM) was 0.0611, the “increase in dead-cell fraction” value (Taselisib/GDC0032; 0.1 µM) was 0.0674 and the “increase in dead-cell fraction” value (Taselisib/GDC0032; 0.3162 µM) was 0.0853. The “increase in dead-cell fraction” value (Taselisib/GDC0032; 1 µM) was 0.0898, the “increase in dead-cell fraction” value (Taselisib/GDC0032; 3.162 µM) was 0.0794 and the “increase in dead-cell fraction” value (Taselisib/GDC0032; 10 µM) was 0.207. For the same cell line, the “increase in dead-cell fraction” value (AZD7762; 0.001 µM) was 0.0024, the “increase in dead-cell fraction” value (AZD7762; 0.003162 µM) was -0.0005 and the “increase in dead-cell fraction” value (AZD7762; 0.01 µM) was -0.0036. For the same cell line, the “increase in dead-cell fraction” value (AZD7762; 0.03162 µM) was -0.0044, the “increase in dead-cell fraction” value (AZD7762; 0.1 µM) was -0.0002 and the “increase in dead-cell fraction” value (AZD7762; 0.3162 µM) was 0.0011. For the same cell line, the “increase in dead-cell fraction” value (AZD7762; 1 µM) was 0.0228, the “increase in dead-cell fraction” value (AZD7762; 3.162 µM) was 0.106 and the “increase in dead-cell fraction” value (AZD7762; 10 µM) was 0.232. For the same cell line, the “increase in dead-cell fraction” value (Alpelisib/BYL719; 0.001 µM) was 0.0064, the “increase in dead-cell fraction” value (Alpelisib/BYL719; 0.003162 µM) was 0.0041 and the “increase in dead-cell fraction” value (Alpelisib/BYL719; 0.01 µM) was 0.0062. The “increase in dead-cell fraction” value (Alpelisib/BYL719; 0.03162 µM) was 0.0114, the “increase in dead-cell fraction” value (Alpelisib/BYL719; 0.1 µM) was 0.0193 and the “increase in dead-cell fraction” value (Alpelisib/BYL719; 0.3162 µM) was 0.0259. The “increase in dead-cell fraction” value (Alpelisib/BYL719; 1 µM) was 0.0468, the “increase in dead-cell fraction” value (Alpelisib/BYL719; 3.162 µM) was 0.0789 and the “increase in dead-cell fraction” value (Alpelisib/BYL719; 10 µM) was 0.222. For the same cell line, the “increase in dead-cell fraction” value ([2]; 0.0001 µM) was 0.0001, the “increase in dead-cell fraction” value ([2]; 0.0003162 µM) was -0.0015 and the “increase in dead-cell fraction” value ([2]; 0.001 µM) was 0.0053. The “increase in dead-cell fraction” value ([2]; 0.003162 µM) was 0.016, the “increase in dead-cell fraction” value ([2]; 0.01 µM) was 0.139 and the “increase in dead-cell fraction” value ([2]; 0.03162 µM) was 0.126. For the same cell line, the “increase in dead-cell fraction” value ([2]; 0.1 µM) was 0.108, the “increase in dead-cell fraction” value ([2]; 0.3162 µM) was 0.0794 and the “increase in dead-cell fraction” value ([2]; 1 µM) was 0.121. For the same cell line, the “increase in dead-cell fraction” value (AZD5363; 0.001 µM) was -0.0047, the “increase in dead-cell fraction” value (AZD5363; 0.003162 µM) was 0.0058 and the “increase in dead-cell fraction” value (AZD5363; 0.01 µM) was 0.0054. For the same cell line, the “increase in dead-cell fraction” value (AZD5363; 0.03162 µM) was 0.0087, the “increase in dead-cell fraction” value (AZD5363; 0.1 µM) was 0.0196 and the “increase in dead-cell fraction” value (AZD5363; 0.3162 µM) was -0.0036. For the same cell line, the “increase in dead-cell fraction” value (AZD5363; 1 µM) was 0.0183, the “increase in dead-cell fraction” value (AZD5363; 3.162 µM) was 0.0124 and the “increase in dead-cell fraction” value (AZD5363; 10 µM) was 0.0512.
